{"source": "patent US4053635A", "about": "“Substituted amides of 3-methyl-4-phenyl-3-butenoic acid, with a high hypolipemizing activity” (Istituto Biochimico Italiano di Loredana Lorenzini S.a.s., priority 1974, dated 1977)", "key": {"[1]": {"assay": "hypertriglyceridemia from ethanol (Table IV)", "type": "in vivo, Sprague-Dawley male rat", "details": "300 mg/kg daily, gastric intubation; ethanol twice a day, 4 days (controls 74.20±3.70, ethanol 135.80±13.30)", "description": "| *Animal: Sprague-Dawley male rat of the average weight of 150 g. | Treatment: 0.31 ml. ethanol in 4 ml. water twice a day (in parenthesis, | the N. of animals) for 4 days. The substances have been provided by | gastric intubation at the daily dose of 300 mg/kg."}, "[2]": {"assay": "toxicity in the test animal", "details": "in vivo"}, "[3]": {"assay": "experiments of subchronic toxicity", "type": "in vivo", "details": "per os, 150 mg/kg/day and 300 mg/kg/day, 3 or 6 months", "description": "mg/kg/day. In experiments of subchronic toxicity, the diethylamide of\nthe doses of 150 mg/kg/day and of 300 mg/kg/day for 3 or 6 months: the […]"}, "[4]": {"assay": "hyperlipemia from ethanol (Table V)", "type": "in vivo, Sprague-Dawley male rat", "details": "gastric intubation; for cholesterolemia: ethyl alcohol 10% 1 week (controls 85±6, ethanol 90±4); for Triglyceridemia ±SE: ethyl alcohol 10% 1 week (controls 87±14, ethanol 238±44)", "description": "Sprague-Dawley male rat of the average weight of 150 g. ethyl alcohol 10%\nin water for 1 week (in parenthesis, the N. of animals). The substances\nhave been administered by gastric intubation at the dose of 200 and 300\nmg/kg/day. In experiments of subchronic toxicity, the diethylamide of […]"}, "[5]": {"assay": "hypertriglyceridemia from Fructose (Table II)", "type": "in vivo, Sprague-Dawley male rat", "details": "200 mg/kg day by gastric probing, 5 days", "description": "*Animal: Sprague-Dawley male rat, 150 g.; 6 rat sets. Treatment accordin\nto E. A. Nikkila et al., Life sci.5,89,1966; substances administered at\nthe dose of 200 mg/kg day by gastric probing in two daily administrations"}, "[6]": {"assay": "hyperlipemia from diet (Table III)", "type": "in vivo, Sprague-Dawley male rat", "details": "200 mg/kg/day per os; for Hepatic Cholesterol ± SE: hyperlipidic diet 4 weeks (diet alone 16.4±0.8); for Hepatic triglycerides ± SE: hyperlipidic diet 4 weeks (diet alone 56.4+3.8); for Triglyceridemia ± ES: hyperlipidic diet 4 weeks (diet alone 117.3±17.7); for Cholesterolemia ± SE: hyperlipidic diet 4 weeks (diet alone 129.9±9.3)", "text": "°In parentheses, significativity towards the set treated only with\n*Animal: Sprague-Dawley male rat of the initial weight of 120 g (in\nparentheses the N. of animals).\nTreatment: Hyperlipemia derived from hyperlipidic diet according to Nath N. et al., Nutrition J. 67, 289, 1959; the diet has been administered for 4 weeks. Each drug has been administered at the dose of 200/mg/kg/day per os for 4 weeks."}, "[7]": {"assay": "in vivo", "details": "rat, po, read-out: LD 50 per os in the rat"}, "[8]": {"details": "former works (U.S. Pat. No. 3,231,469; Canonica et al.); cited from earlier work"}, "[9]": {"details": "3rd experiment (controls 77.1±12.1, fructose 155.2±19.2)"}, "[10]": {"details": "1st experiment (controls 41.7±1.7, fructose 62.9±5.5)"}, "[11]": {"details": "4th experiment (controls 45.3±4.5, fructose 87.4±14.4)"}, "[12]": {"details": "2nd experiment (controls 45.6±4.7, fructose 94.0±12.1)"}}, "data": [{"compound": "CCN(CC)C(=O)C/C(C)=C/c1ccccc1", "note": "[IIId, Diethylamide of 3-methyl-4-phenyl-3-butenoic acid]", "values": [{"measurement": "Triglyceridemia ±SE", "setting": "[1]", "value": "90.0±14.83", "unit": "mg/100 ml"}, {"measurement": "toxicity in the test animal", "setting": "[2]", "value": "low toxicity"}, {"measurement": "tolerability in subchronic toxicity", "setting": "[3]", "value": "fairly well tolerated"}, {"measurement": "cholesterolemia", "setting": "[4]; 200 mg/kg/day", "value": "77±3", "unit": "mg/100 ml"}, {"measurement": "Triglyceridemia ±SE", "setting": "[4]; 200 mg/kg/day", "value": "169±20", "unit": "mg/100 ml"}, {"measurement": "cholesterolemia", "setting": "[4]; 300 mg/kg/day", "value": "81±3", "unit": "mg/100 ml"}, {"measurement": "Triglyceridemia ±SE", "setting": "[4]; 300 mg/kg/day", "value": "117±20", "unit": "mg/100 ml"}, {"measurement": "Triglyceridemia ±SE", "setting": "[5]; [9]", "value": "87.1±13.4", "unit": "mg/100 ml"}, {"measurement": "Hepatic Cholesterol ± SE", "setting": "[6]", "value": "19.4±0.7", "unit": "mg/g fresh tissue"}, {"measurement": "Hepatic triglycerides ± SE", "setting": "[6]", "value": "25.9±3.8", "unit": "mg/g fresh tissue"}, {"measurement": "Triglyceridemia ± ES", "setting": "[6]", "value": "77.4±7.5", "unit": "mg/100 ml"}, {"measurement": "Cholesterolemia ± SE", "setting": "[6]", "value": "124.9±4.6", "unit": "mg/100 ml"}]}, {"compound": "C/C(=C\\c1ccccc1)CC(=O)NCCO", "note": "[IIIa, Monoethanolamide of 3-methyl-4-phenyl-3-butenoic acid]", "values": [{"measurement": "Triglyceridemia ±SE", "setting": "[5]; [10]", "value": "62.9±6.4", "unit": "mg/100 ml"}]}, {"compound": "C/C(=C\\c1ccccc1)CC(=O)N1CCOCC1", "note": "[IIIe, Morpholide of 3-methyl-4-phenyl-3-butenoic acid]", "values": [{"measurement": "LD50", "setting": "[7]", "value": 1000, "unit": "mg/kg"}, {"measurement": "Triglyceridemia ±SE", "setting": "[5]; [11]", "value": "61.1±5.1", "unit": "mg/100 ml"}]}, {"compound": "CCOC(=O)C(C)(C)Oc1ccc(Cl)cc1", "note": "[chlofibrate, ethyl ester of 2-(p-chlorophenoxy)-2-methyl propanoic acid, reference compound]", "values": [{"measurement": "Triglyceridemia ±SE", "setting": "[1]", "value": "121.50±12.26", "unit": "mg/100 ml"}, {"measurement": "cholesterolemia", "setting": "[4]; 200 mg/kg/day", "value": "70±3", "unit": "mg/100 ml"}, {"measurement": "Triglyceridemia ±SE", "setting": "[4]; 200 mg/kg/day", "value": "183±29", "unit": "mg/100 ml"}, {"measurement": "Triglyceridemia ±SE", "setting": "[5]; [10]", "value": "42.2±5.4", "unit": "mg/100 ml"}, {"measurement": "Triglyceridemia ±SE", "setting": "[5]; [12]", "value": "48.9±2.4", "unit": "mg/100 ml"}, {"measurement": "Triglyceridemia ±SE", "setting": "[5]; [9]", "value": "62.9±7.2", "unit": "mg/100 ml"}, {"measurement": "Triglyceridemia ±SE", "setting": "[5]; [11]", "value": "59.1±3.6", "unit": "mg/100 ml"}, {"measurement": "Hepatic Cholesterol ± SE", "setting": "[6]", "value": "18.5±1", "unit": "mg/g fresh tissue"}, {"measurement": "Hepatic triglycerides ± SE", "setting": "[6]", "value": "30.3±2.5", "unit": "mg/g fresh tissue"}, {"measurement": "Triglyceridemia ± ES", "setting": "[6]", "value": "60.0±4.3", "unit": "mg/100 ml"}, {"measurement": "Cholesterolemia ± SE", "setting": "[6]", "value": "138.8±10.7", "unit": "mg/100 ml"}]}, {"compound": "C/C(=C\\c1ccccc1)CC(N)=O", "note": "[II]", "values": [{"measurement": "hypolipemic characteristics", "setting": "[8]", "value": "interesting hypolipemic characteristics"}]}, {"compound": "C/C(=C\\c1ccccc1)CC(=O)O", "note": "[I, 3-methyl-4-phenyl-3-butenoic acid]", "values": [{"measurement": "Triglyceridemia ±SE", "setting": "[1]", "value": "275.11±31.63", "unit": "mg/100 ml"}, {"measurement": "hypolipemic characteristics", "setting": "[8]", "value": "interesting hypolipemic characteristics"}, {"measurement": "Triglyceridemia ±SE", "setting": "[5]; [10]", "value": "42.8±3.7", "unit": "mg/100 ml"}, {"measurement": "Triglyceridemia ±SE", "setting": "[5]; [12]", "value": "40.8±4.5", "unit": "mg/100 ml"}, {"measurement": "Triglyceridemia ±SE", "setting": "[5]; [9]", "value": "100.8±13.8", "unit": "mg/100 ml"}, {"measurement": "Triglyceridemia ±SE", "setting": "[5]; [11]", "value": "57.6±2.6", "unit": "mg/100 ml"}, {"measurement": "Hepatic Cholesterol ± SE", "setting": "[6]", "value": "20.2±0.9", "unit": "mg/g fresh tissue"}, {"measurement": "Hepatic triglycerides ± SE", "setting": "[6]", "value": "37.7±5.6", "unit": "mg/g fresh tissue"}, {"measurement": "Triglyceridemia ± ES", "setting": "[6]", "value": "91.5±13.6", "unit": "mg/100 ml"}, {"measurement": "Cholesterolemia ± SE", "setting": "[6]", "value": "142.4±7.7", "unit": "mg/100 ml"}]}, {"compound": "C/C(=C\\c1ccccc1)CC(=O)NC1CCCCC1", "note": "[IIIb, Monocyclohexylamide of 3-methyl-4-phenyl-3-butenoic acid]", "values": [{"measurement": "LD50", "setting": "[7]", "value": 3000, "unit": "mg/kg"}, {"measurement": "Triglyceridemia ±SE", "setting": "[5]; [12]", "value": "59.1±7.5", "unit": "mg/100 ml"}, {"measurement": "Hepatic Cholesterol ± SE", "setting": "[6]", "value": "22.1±1.1", "unit": "mg/g fresh tissue"}, {"measurement": "Hepatic triglycerides ± SE", "setting": "[6]", "value": "37.5±3.0", "unit": "mg/g fresh tissue"}, {"measurement": "Triglyceridemia ± ES", "setting": "[6]", "value": "81.5±7.9", "unit": "mg/100 ml"}, {"measurement": "Cholesterolemia ± SE", "setting": "[6]", "value": "135.7±11.6", "unit": "mg/100 ml"}]}, {"compound": "C/C(=C\\c1ccccc1)CC(=O)N(CCO)CCO", "note": "[IIIc, Diethanolamide of 3-methyl-4-phenyl-3-butenoic acid]", "values": [{"measurement": "LD50", "setting": "[7]", "value": 1500, "unit": "mg/kg"}, {"measurement": "Triglyceridemia ±SE", "setting": "[5]; [12]", "value": "69.6±3.9", "unit": "mg/100 ml"}]}]}
